Reference: PMC3971528, “Leishmania infantum EndoG Is an Endo/Exo-Nuclease Essential for Parasite Survival” (PLoS ONE, 2014)

Target: T1, LiEndoG (rLiEndoG) (Leishmania infantum, UniProt B0ZTD3)
T1 construct: gene endog; recombinant from pRSET-LiendoG in E. coli BL21(DE3) pLys
T1 sequence (B0ZTD3 1-510): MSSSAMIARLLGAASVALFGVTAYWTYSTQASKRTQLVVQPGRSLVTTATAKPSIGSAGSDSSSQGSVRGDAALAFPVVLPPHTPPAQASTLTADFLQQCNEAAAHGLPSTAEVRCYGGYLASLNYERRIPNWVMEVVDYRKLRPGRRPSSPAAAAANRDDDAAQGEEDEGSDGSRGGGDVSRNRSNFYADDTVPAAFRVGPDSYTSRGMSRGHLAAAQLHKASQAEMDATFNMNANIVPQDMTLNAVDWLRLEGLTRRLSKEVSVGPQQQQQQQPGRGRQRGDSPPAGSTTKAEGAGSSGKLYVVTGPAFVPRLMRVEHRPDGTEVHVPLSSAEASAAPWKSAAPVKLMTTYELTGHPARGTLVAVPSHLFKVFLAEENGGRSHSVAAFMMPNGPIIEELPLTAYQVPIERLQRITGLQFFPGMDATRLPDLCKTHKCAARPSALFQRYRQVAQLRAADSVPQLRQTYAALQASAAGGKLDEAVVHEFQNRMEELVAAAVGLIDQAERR
Assay: fluorescence nuclease assay, FAM/TAMRA double-stranded oligonucleotide probe
Assay type: biochemical
Conditions: inhibitor; 30 pmol probe, 2.5 ng/mL LiEndoG, 40 min; increasing Lei49

## Cc1cn([C@H]2C[C@H](OC(=O)CCC(=O)OCCOC(=O)[C@@H](N)C(C)C)[C@@H](COC(c3ccccc3)(c3ccccc3)c3ccccc3)O2)c(=O)[nH]c1=O [Lei49, 2-[(S)-2-Amino-3-methylbutanoyl-oxy]ethyl [(2R,3S,5R)-5-(thymin-1-yl)-2-(trityloximethyl)tetrahydrofuran-3-yl] succinate]
  fluorescence nuclease assay, FAM/TAMRA double-stranded oligonucleotide probe: Inhibition of the nuclease activity of LiEndoG by Lei49.
